Laboratory results as given in patent publication US20180098954A1, “AMELIORATING AGENT FOR EXERCISE-INDUCED GASTROINTESTINAL DISORDERS” (AJINOMOTO CO., INC., priority 2015, published 2018).

Assays:
CD2F1 mice [1] = experiment: gastrointestinal tract permeability of FD4 (FITC-dextran) after 4 hr running in a hamster wheel; type: in vivo; settings: male CD2F1 mice, FD4 500 mg/kg orally
Text: It is known that high molecular weight substances that are not usually absorbed from the gastrointestinal tract penetrate the intestine and enter the blood when the barrier function of the gastrointestinal tract is declined (FIG. 1). Therefore, the improving effect of cystine on exercise-induced decline in gastrointestinal tract barrier function was studied by the following test. […] According to the method described in Cani et al., Gut 2009, 58(8) : 1091-1103, which is incorporated herein by reference in its entirety, FD4 concentration that leaked into the blood from the gastrointestinal tract was calculated by measuring the fluorescence intensity in the blood, based on which the gastrointestinal tract permeability of FD4 was evaluated (see FIG. 2). To be specific, blood was collected from the mice under isoflurane anesthesia, the collected blood was centrifuged to give plasma, the obtained plasma was diluted 2-fold with phosphate buffer, and fluorescence intensity was measured under the conditions of excitation wavelength: 485 nm, detection wavelength: 535 nm (measurement device SPECTRA MAX GEMINI EM Molecular Devices Japan). […] After completion of running, the gastrointestinal tract permeability of FD4 was evaluated in the same manner as in Example 1.

CD2F1 mice [2] = experiment: feed intake after totally exhausting treadmill exercise for 3 consecutive days; type: in vivo; settings: male CD2F1 mice; normal diet added with cystine (2%) in place of casein for 8 days; after totally exhausting exercise for 3 consecutive days; versus exercise group; P<0.05 (FIG. 5)
Text: Athletes are known to experience gastrointestinal upset and loss of appetite in scenes where intense training such as a camp training and the like are repeated. Therefore, the improving effect of cystine on exercise-induced decrease in appetite was studied by the following test. 6-Week-old male CD2F1 mice (Charles River Laboratories Japan, Inc.) were divided into 3 groups (non-exercise group, exercise group, and exercise+2% cystine group), and a normal diet (AIN-93G composition) was given to non-exercise group and exercise group, and a normal diet (AIN-93G composition) added with cystine (2%) in place of casein was given to exercise+2% cystine group, each for 8 days. Thereafter, exercise group and exercise+2% cystine group were made to run in a treadmill to total exhaustion for 3 consecutive days, and non-exercise group was not allowed to exercise (see FIG. 4). While exercise group and exercise+2% cystine group ran, non-exercise group was fasted and deprived of water. A new feed was given every day after completion of the totally exhausting exercise, recovered the next day and the amount of the remaining feed was measured, from which feed intake was calculated.

## N[C@@H](CSSC[C@H](N)C(=O)O)C(=O)O [cystine]
CD2F1 mice [1]; cystine (2%) diet versus glutamine (2%) diet for 7 days, blood after 1 hr (FIG. 3)
  FD4 concentration in blood (gastrointestinal tract permeability), compared to Gln+Ex: lower FD4 concentration in blood as compared to the group (Gln+Ex)
CD2F1 mice [1]; normal diet added with cystine (2%) for 7 days, blood after 1 hr, versus exercise group on normal diet, P<0.05 (FIG. 3)
  FD4 concentration in blood (gastrointestinal tract permeability), compared to Ex: lower FD4 concentration in blood as compared to Ex
CD2F1 mice [2]
  relative feed intake after exercise (Pre run as 100%): significantly high as compared to the exercise group
